According to patent US20070191363A1, “Heteroalkyl-substituted biphenyl-4-carboxylic acid arylamide analogues” (Neurogen Corporation, priority 2004, published 2007):

Molecular target: T1, human capsaicin receptor (Homo sapiens, UniProt Q8NER1)
T1 construct: expressed in transfected cells
Assay: Calcium mobilization assay, capsaicin agonist response
Format: cell-based
Conditions: capsaicin positive control, calcium mobilization in cells expressing human capsaicin receptor; read-out: approximate EC90 concentration
Experimental: Cells transfected with expression plasmids (as described in Example 3) and thereby expressing human capsaicin receptor are seeded and grown to 70-90% confluency in FALCON black-walled, clear-bottomed 96-well plates (#3904, BECTON-DICKINSON, Franklin Lakes, N.J.). The culture medium is emptied from the 96 well plates and FLUO-3 AM calcium sensitive dye (Molecular Probes, Eugene, Oreg.) is added to each well (dye solution: 1 mg FLUO-3 AM, 440 μL DMSO and 440 μl 20% pluronic acid in DMSO, diluted 1:250 in Krebs-Ringer HEPES (KRH) buffer (25 mM HEPES, 5 mM KCl, 0.96 mM NaH2PO4, 1 mM MgSO4, 2 mM CaCl2, 5 mM glucose, 1 mM probenecid, pH 7.4), 50 μl diluted solution per well). […]
To measure the ability of a test compound to agonize or antagonize a calcium mobilization response in cells expressing capsaicin receptors to capsaicin or other vanilloid agonist, the EC50 of the agonist capsaicin is first determined. […] Capsaicin-induced calcium mobilization is monitored using either FLUOROSKAN ASCENT (Labsystems; Franklin, Mass.) or FLIPR (fluorometric imaging plate reader system; Molecular Devices, Sunnyvale, Calif.) instruments. […] In this equation, y is the maximum fluorescence signal, x is the concentration of the agonist or antagonist (in this case, capsaicin), a is the Emax, b corresponds to the EC50 value and c is the Hill coefficient. […]

T1 sequence (Q8NER1 whole entry): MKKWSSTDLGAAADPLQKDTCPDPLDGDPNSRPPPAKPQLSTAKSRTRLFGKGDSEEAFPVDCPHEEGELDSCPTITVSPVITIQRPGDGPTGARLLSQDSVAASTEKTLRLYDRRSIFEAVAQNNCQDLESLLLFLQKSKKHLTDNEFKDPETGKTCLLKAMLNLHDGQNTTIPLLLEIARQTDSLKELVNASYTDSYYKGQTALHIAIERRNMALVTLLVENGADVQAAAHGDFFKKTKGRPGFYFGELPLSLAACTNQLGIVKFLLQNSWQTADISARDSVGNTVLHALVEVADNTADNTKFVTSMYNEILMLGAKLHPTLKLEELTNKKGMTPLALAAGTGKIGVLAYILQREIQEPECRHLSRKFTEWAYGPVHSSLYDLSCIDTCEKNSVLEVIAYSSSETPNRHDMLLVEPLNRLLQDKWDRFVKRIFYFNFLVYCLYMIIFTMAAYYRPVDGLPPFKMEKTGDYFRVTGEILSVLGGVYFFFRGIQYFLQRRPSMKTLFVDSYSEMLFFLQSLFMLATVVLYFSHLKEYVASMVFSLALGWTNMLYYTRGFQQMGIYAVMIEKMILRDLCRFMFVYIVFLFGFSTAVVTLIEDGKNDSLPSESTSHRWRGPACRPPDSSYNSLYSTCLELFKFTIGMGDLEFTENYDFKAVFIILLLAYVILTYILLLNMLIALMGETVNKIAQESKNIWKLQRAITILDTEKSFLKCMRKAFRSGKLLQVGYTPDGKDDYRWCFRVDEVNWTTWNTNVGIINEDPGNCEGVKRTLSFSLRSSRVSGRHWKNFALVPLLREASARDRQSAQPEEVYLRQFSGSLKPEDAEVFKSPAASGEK

Row | EC90 [nM] | Structure (SMILES)
1 | ~100 | COc1cc(CNC(=O)CCCC/C=C/C(C)C)ccc1O [capsaicin]

Molecular target: VR
Assay: not given
Conditions: binds to VR with no more than moderate affinity; typical value; cited from earlier work

Row | Structure (SMILES) | Ki [nM]
2 | Cl.Cl.Cl.Cl.Cl.Cl.N.N.N.N.N.N.N.N.N.N.N.N.N.N.[O-2].[O-2].[Ru+3].[Ru+3].[Ru+4] [ruthenium red] | ≥ 140000

Molecular target: T1, human capsaicin receptor
Assay: Calcium mobilization assay, determination of antagonist activity
Format: cell-based
Conditions: 50% decrease in the fluorescence response of cells exposed to capsaicin; cells expressing human capsaicin receptor
Experimental: A cDNA encoding full length human capsaicin receptor (SEQ ID NO:1, 2 or 3 of U.S. Pat. No. 6,482,611) is subcloned in the plasmid pBK-CMV (Stratagene, La Jolla, Calif.) for recombinant expression in mammalian cells.
Human embryonic kidney (HEK293) cells are transfected with the pBK-CMV expression construct encoding the full length human capsaicin receptor using standard methods. The transfected cells are selected for two weeks in media containing G418 (400 μg/ml) to obtain a pool of stably transfected cells. Independent clones are isolated from this pool by limiting dilution to obtain clonal stable cell lines for use in subsequent experiments.
This Example illustrates a representative calcium mobilization assay for use in monitoring the response of cells expressing capsaicin receptor to capsaicin and other vanilloid ligands of the capsaicin receptor, as well as for evaluating test compounds for agonist and antagonist activity.
Cells transfected with expression plasmids (as described in Example 3) and thereby expressing human capsaicin receptor are seeded and grown to 70-90% confluency in FALCON black-walled, clear-bottomed 96-well plates (#3904, BECTON-DICKINSON, Franklin Lakes, N.J.). The culture medium is emptied from the 96 well plates and FLUO-3 AM calcium sensitive dye (Molecular Probes, Eugene, Oreg.) is added to each well (dye solution: 1 mg FLUO-3 AM, 440 μL DMSO and 440 μl 20% pluronic acid in DMSO, diluted 1:250 in Krebs-Ringer HEPES (KRH) buffer (25 mM HEPES, 5 mM KCl, 0.96 mM NaH2PO4, 1 mM MgSO4, 2 mM CaCl2, 5 mM glucose, 1 mM probenecid, pH 7.4), 50 μl diluted solution per well). Plates are covered with aluminum foil and incubated at 37° C. for 1-2 hours in an environment containing 5% CO2. After the incubation, the dye is emptied from the plates, and the cells are washed once with KRH buffer, and resuspended in KRH buffer.
To measure the ability of a test compound to agonize or antagonize a calcium mobilization response in cells expressing capsaicin receptors to capsaicin or other vanilloid agonist, the EC50 of the agonist capsaicin is first determined. An additional 20 μl of KRH buffer and 1 μl DMSO is added to each well of cells, prepared as described above. 100 μl capsaicin in KRH buffer is automatically transferred by the FLIPR instrument to each well. Capsaicin-induced calcium mobilization is monitored using either FLUOROSKAN ASCENT (Labsystems; Franklin, Mass.) or FLIPR (fluorometric imaging plate reader system; Molecular Devices, Sunnyvale, Calif.) instruments. Data obtained between 30 and 60 seconds after agonist application are used to generate an 8-point concentration response curve, with final capsaicin concentrations of 1 nM to 3 μM. […] software (Synergy Software, Reading, Pa.) is used to fit the data to the equation: y=a*(1/(1+(b/x)c)) to determine the 50% excitatory concentration (EC50) for the response. In this equation, y is the maximum fluorescence signal, x is the concentration of the agonist or antagonist (in this case, capsaicin), a is the Emax, b corresponds to the EC50 value and c is the Hill coefficient. Determination of Agonist Activity
Test compounds are dissolved in DMSO, diluted in 20 μl KRH buffer so that the final concentration of test compounds in the assay well is between 1 μM and 5 μM, and added to cells prepared as described above. The 96 well plates containing prepared cells and test compounds are incubated in the dark, at room temperature for 0.5 to 6 hours. It is important that the incubation not continue beyond 6 hours. Just prior to determining the fluorescence response, 100 μl capsaicin in KRH buffer at twice the EC50 concentration determined as described above is automatically added by the FLIPR instrument to each well of the 96 well plate for a final sample volume of 200 μl and a final capsaicin concentration equal to the EC50. The final concentration of test compounds in the assay wells is between 1 μM and 5 μM.

Row | IC50 [nM] | Structure (SMILES)
3 | ≤ 1000 | CC(C)(C)c1ccc(NC(=O)c2ccc(-c3ncccc3C(F)(F)F)cc2O)cc1OCCN1CCCCC1 [Compound 9, N-[4-tert-Butyl-3-(2-piperidin-1-yl-ethoxy)-phenyl]-2-hydroxy-4-(3-trifluoromethyl-pyridin-2-yl)-benzamide]
4 | ≤ 1000 | C[C@@H]1CN(CCOc2cc(NC(=O)c3ccc(-c4ncccc4C(F)(F)F)cc3O)ccc2C(C)(C)C)C[C@H](C)O1 [Compound 8, N-{4-tert-Butyl-3-[2-(2,6-dimethyl-morpholin-4-yl)-ethoxy]-phenyl}-2-hydroxy-4-(3-trifluoromethyl-pyridin-2-yl)-benzamide (cis)]

The remaining lines, values behind:

Row | Structure (SMILES) | IC50 [nM]
5 | COCCN(CCOC)CCOc1cc(NC(=O)c2ccc(-c3ncccc3C(F)(F)F)cc2)ccc1C(C)(C)C [Compound 5, N-(3-{2-[Bis-(2-methoxy-ethyl)-amino]-ethoxy}-4-tert-butyl-phenyl)-4-(3-trifluoromethyl-pyridin-2-yl)-benzamide] | ≤ 1000
6 | CC(C)(C)c1ccc(NC(=O)c2ccc(-c3ncccc3C(F)(F)F)cc2)cc1OCCN1CCCCC1 [Compound 4, N-[4-tert-Butyl-3-(2-piperidin-1-yl-ethoxy)-phenyl]-4-(3-trifluoromethyl-pyridin-2-yl)-benzamide] | ≤ 1000
7 | CC(C)(C)c1ccc(NC(=O)c2ccc(-c3ncccc3C(F)(F)F)cc2)cc1OCCO [Compound 1, N-[4-tert-Butyl-3-(2-hydroxy-ethoxy)-phenyl]-4-(3-trifluoromethyl-pyridin-2-yl)-benzamide] | ≤ 1000
8 | CC(C)(C)c1ccc(NC(=O)c2ccc(-c3ncccc3C(F)(F)F)cc2O)cc1OCCO [Compound 7, N-[4-tert-Butyl-3-(2-hydroxy-ethoxy)-phenyl]-2-hydroxy-4-(3-trifluoromethyl-pyridin-2-yl)-benzamide] | ≤ 1000
9 | C[C@@H]1CN(CCOc2cc(NC(=O)c3ccc(-c4ncccc4C(F)(F)F)cc3)ccc2C(C)(C)C)C[C@H](C)O1 [Compound 3, N-{4-tert-Butyl-3-[2-(2,6-dimethyl-morpholin-4-yl)-ethoxy]-phenyl}-4-(3-trifluoromethyl-pyridin-2-yl)-benzamide (cis)] | ≤ 1000
10 | CC1(C)CCCN(CCOc2cc(NC(=O)c3ccc(-c4ncccc4C(F)(F)F)cc3)ccc2C(C)(C)C)C1 [Compound 6, N-{4-tert-Butyl-3-[2-(3,3-dimethyl-piperidin-1-yl)-ethoxy]-phenyl}-4-(3-trifluoromethyl-pyridin-2-yl)-benzamide] | ≤ 1000
11 | CC(C)(C)c1ccc(NC(=O)c2ccc(-c3ncccc3C(F)(F)F)cc2)cc1OCCN1CCOCC1 [Compound 2, N-[4-tert-Butyl-3-(2-morpholin-4-yl-ethoxy)-phenyl]-4-(3-trifluoromethyl-pyridin-2-yl)-benzamide] | ≤ 1000
